Values of other authors, collected in patent publication US9155796B2, “Hydrogels with covalently linked polypeptides” (SUSAVION BIOSCIENCES, INC., priority 2012, dated 2015).

tested on: peripheral blood mononuclear cells (PBMCs); settings: PBMC cultures; within 4 hours

Substance	increased PDGF secretion
(NQHTPR-PEG2-)4-Lys2-Lys-PEG2-Cys[—CH2CH(Me): CH2]—NH2 (not fully specified; tetravalent Lys dendrimer, PEG2 linkers, modified Cys amide; Therapeutic peptide) [SV6D]	two- to four-fold
(VQATQS-PEG2-)4-Lys2-Lys-PEG2-Cys[—CH2CH(Me): CH2]—NH2 (not fully specified; tetravalent Lys dendrimer, PEG2 linkers, modified Cys amide; Therapeutic peptide) [SVC1]	two- to four-fold
(WNSTL-PEG2-)4-Lys2-Lys-PEG2-Cys[CH2CH(Me): CH2]—NH2 (not fully specified; tetravalent Lys dendrimer, PEG2 linkers, modified Cys amide; Therapeutic peptide) [SVH1B]	two- to four-fold
(VSNQH-PEG2-)4-Lys2-Lys-PEG2-Cys[—CH2CH(Me): CH2]—NH2 (not fully specified; tetravalent Lys dendrimer, PEG2 linkers, modified Cys amide; Therapeutic peptide) [SVD2]	two- to four-fold
